Results published in US9758501B2, “Fluorophore 3-hydroxyflavone” (TUBITAK (TURKIYE BILIMSEL VE TEKNOLOJIK ARASTIRMA KURUMU), priority 2013, dated 2017).

Legend:
[1] = system: T25: single-strain DNA chain, comprising 25 Thymines; assay: Fluorescence N*/T* ratio vs DNA concentration, T25; details: T25 added to 3-HFNMe3 in ultra pure water
Procedure: T25: A single-strain DNA chain, comprising 25 Thymines
(§1) Fluorescence emission was then recorded after each addition the DNA solution (2 μl, 20 nmol/ml). The ratio of N* and T* bands was calculated and a graph, having N*/T* ratio vs DNA concentration was plotted.

[2] = system: C25: single-strain DNA chain, comprising 25 Cytosines; assay: Fluorescence N*/T* ratio vs DNA concentration, C25; details: C25 added to 3-HFNMe3 in ultra pure water
Procedure: C25: A single-strain DNA chain, comprising 25 Cytosines
as §1

[3] = system: single-strain DNA chains; assay: Fluorescence measurements on gradual addition of DNA solution; details: ultra pure water; DNA solution added in 2 μl portions (20 nmol/ml)
Procedure: as §1

Question: With “N-(3-hydroxy-4′-flavonyl)-N,N,N-trimethylammonium sulphate [3-HFNMe3]” as the substance, how does the “N*/T* curve, rank among DNA chains” value [1] read?
Answer: lowest

Question: And the “N*/T* curve, rank among DNA chains” value [2]?
Answer: highest

Question: What about the “effect of DNA addition on fluorescence emission” value [3] of the same substance?
Answer: ratiometric quenching of particularly the N* band
